The source of these data is paper PMC4557121, “TRB3 links insulin/IGF to tumour promotion by interacting with p62 and impeding autophagic/proteasomal degradations” (Nature Communications, 2015).

The subject of test [1] is B16-F10 cells. The test can be described thus: B16-F10 tumour growth and metastasis in TRB3 knockdown KK-Ay mice given 3-MA or MG132. The format is in vivo. The conditions noted are these: KK-Ay/TRB3-KD mice, B16-F10 s.c. or i.v.; 3-MA 30 mg kg^−1 per day or MG132 2.5 mg kg^−1 twice a week i.p.; n=6 per group; Supplementary Fig. 4g,h. Here is the method: Seven-week-old KK-Ay mice were i.p. injected with TRB3-shRNA lentiviral particles (2 × 10^5 plaque-forming unit) to generate KK-Ay/TRB3-KD mice; over 75% depletion of TRB3 in target tissues (lungs and liver) was considered as effectively knocking down. 3-MA (30 mg kg^−1 per day) or MG132 (2.5 mg kg^−1 twice a week) was i.p. injected to the KK-Ay/TRB3-KD mice, from day 9 after tumour inoculation to the time of being killed. The evaluation of tumour growth and metastasis was described in the section of ‘Mouse Models for Tumour Growth and Metastasis'.
control-shRNA. Data are the summarized fold changes of proteins (control-
shRNA/TRB3-shRNA1) (upper) and representative spots showing
differentially expressed EGFR (framed) (lower). Data are representative of 2
independent assays. (e) The xenograft tumours express higher pro-
metastasis and pro-EMT factors in KK-Ay mice than that in C57 BL/6 mice.
Data are representative immunoblots of 4 independent assays. (f) The liver
and lung tissues express higher pro-metastasis and pro-EMT factors in
DMBA-treated KK-Ay mice than that in DMBA-treated C57 BL/6. Data are
representative immunoblots of 4 independent assays. (g,h) Suppressing
autophagy or UPS reverses the antitumour effect of TRB3 knockdown. TRB3
knockdown KK-Ay mice were s.c. injected with B16-F10 cells ([…]) or i.v. […]
Statistical significance was determined by Student’s t-test; *P<0.05, **P<0.01,

Test [2] deals with TRB3-silenced HepG2 cells. The test can be described thus: Protein turnover assay in TRB3-silenced HepG2 cells with degradation inhibitors. The format is cell-based, human. To be noted: inhibitor 12 h, immunoblot, Fig. 3f. Here is the method:
Figure 3 Enhanced TRB3 compromises selective autophagy and clearance of UPS. (a) BEAS-2B cells were infected with TRB3-Myc-adenovirus expressing Myc-Tagged TRB3 with an independently expressing GFP. GFP-adenovirus was used as control. Indicated molecules were detected by immunoblotting. Data are representatives of four independent assays. (b) TRB3-silenced cells were treated with IGF-1 (100 nM) for 12 h and indicated proteins were detected by immunoblotting. Data are representatives of four independent assays. (c) Control or TRB3-silenced HepG2 cells were infected with adenovirus with mRFP-GFP-LC3-PE. After 24 h, the cells were treated with IGF-1 (100 nM) for 12 h and the flux rate of autophagy was detected with Live Cell Imaging Microscopy. Data are schematic drawing of the autophagy process (upper) and microscopy images showing red-coloured autophagolysosomes or red/green double-coloured autophagosomes (lower). Scale bar, 10 μm. See also Supplementary Movies 1–6. (d) Silencing TRB3 increased the number of autophagosomes (Avi) and autolysosomes (Avd) in HepG2 cells treated with or without IGF-1 (100 nM). Data are representative images of TEMs of three independent assays. Single arrows denote Avi; double arrows indicate Avd. Scale bar, 500 nm. The ratio of autophagic vacuole area to the cytoplasmic area was determined by morphometric analysis. Data are means±s.e.m. (e) TRB3-silenced cells were treated with IGF-1 (100 nM) for 12 h. Expression of indicated proteins was detected by immunoblotting. Data are representatives of four independent assays. (f) TRB3-silenced HepG2 cells were treated with bafilomycin (left) or MG132 (right) for 12 h. Indicated proteins were detected by immunoblotting. […] The cells were treated with or without IGF-1 for 12 h and the expression of Ub^G76V-GFP was immunoblotted with anti-GFP antibody (Ab; left) or detected with flow cytometry (right). […] The proliferative and invasive capacities of cells were evaluated with Edu (h) and transwell assays (i). Statistical significance was determined with one-way analysis of variance (ANOVA); *P<0.05; **P<0.01; ***P<0.001. […]

For test [3], the target named is T1, TRB3 (Homo sapiens, UniProt Q96RU7).
T1 sequence (Q96RU7 1-358): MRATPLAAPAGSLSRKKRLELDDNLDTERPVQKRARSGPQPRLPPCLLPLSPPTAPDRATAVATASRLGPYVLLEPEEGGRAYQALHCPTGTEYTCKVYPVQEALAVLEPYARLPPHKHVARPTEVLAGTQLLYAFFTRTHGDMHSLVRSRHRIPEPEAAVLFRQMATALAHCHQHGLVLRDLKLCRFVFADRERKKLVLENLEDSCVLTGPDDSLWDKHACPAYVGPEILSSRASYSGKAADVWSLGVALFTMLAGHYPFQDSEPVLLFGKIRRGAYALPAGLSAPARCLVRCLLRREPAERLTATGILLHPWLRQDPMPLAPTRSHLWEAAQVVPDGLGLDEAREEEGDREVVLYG
Nature of the test: Surface plasmon resonance binding of peptides to immobilized TRB3. Here is the method: Binding kinetics between TRB3 and control, P2, P4, P6, P7, P8, P9, P11, A1, A2 or A3 were measured by a surface plasmon resonance assay using BIAcore T200 instrument (GE Healthcare, Pittsburgh, USA)[53]. The dissociation constant (KD) was calculated according to the BIA-evaluation software.

Test [4] concerns p62. The test can be described thus: Cycloheximide chase of p62 degradation in HepG2 cells. It is filed as cell-based, human. To be noted: CHX 10 μg ml^−1 after insulin/IGF-1 stimulation, 8.5 h without stimulation, three independent assays, Fig. 4b. Here is the method:
Figure 4 TRB3 mediates insulin/IGF-induced p62 accumulation. (a) HepG2 cells were treated with indicated stimulators for 12 h. The mRNAs were determined with RT–PCR using specific primer sets. Data are means±s.e.m of three independent assays. (b) HepG2 cells were incubated with cycloheximide (CHX) (10 μg ml^−1) for indicated time points after insulin/IGF-1 stimulation. Indicated proteins were detected with immunoblotting. Data are means±s.e.m of three independent assays. (c) Control or TRB3-silenced cells were incubated with CHX (10 μg ml^−1) for indicated time points after IGF-1 stimulation. Cell lysates were isolated for immunoblotting. Data are means±s.e.m of three independent assays. (d) HepG2 cells expressing p62- or control-siRNA were co-transfected with Ub^G76V-GFP. The cells were treated with IGF-1 for 12 h. The cell lysates were isolated for immunoblotting. Data are representative of immunoblots of three independent assays. (e) Cells expressing control-shRNA or TRB3-shRNAs were transfected with Ub^G76V-GFP plasmid plus or minus with p62-DDK-expressing plasmid. The lysates were isolated for immunoblotting. […] After 24 h, the cells were treated with IGF-1 for 12 h, and the flux rate of autophagy was detected with Live Cell Imaging Microscopy. […] Indicated proteins were evaluated with immunoblotting. […] Statistical significance was determined with Student's t-test; *P<0.05. […]

The mark [5] stands for this setting: SPR, BIAcore T200, peptide passed over TRB3 immobilized on CM5 sensor chip, alanine scan of A2, Fig. 6f, read-out: KD.

Like-named read-outs stand apart in the source and are kept apart here. Where a SMILES comes first, the peptide text is derived from it. Where no end group is shown, it is not given here. The star is where a group is joined. Cbz = O=C(OCc1ccccc1)*

With `Cn1cnc(N)c2ncnc1-2` [3-MA], the “effect on antitumour actions of TRB3 deficiency” value in test [1] is reported as “overturn the antitumour actions of TRB3 deficiency”.
With `CC(C)C[C@@H](C=O)NC(=O)[C@H](CC(C)C)NC(=O)[C@H](CC(C)C)NC(=O)OCc1ccccc1` [MG132] (Cbz-Leu-Leu-Leu-aldehyde), the “turnover of COX2, Twist and MMP-2” value in test [2] is “inhibited”. In test [1], the “effect on antitumour actions of TRB3 deficiency” value is given as “overturn the antitumour actions of TRB3 deficiency”.
As to `CO/C1=C\C(C)=C\[C@@H](C)[C@@H](O)[C@@H](C)C/C(C)=C/C=C/[C@H](OC)[C@@H]([C@@H](C)[C@@H](O)[C@H](C)[C@@]2(O)C[C@@H](O)[C@H](C)[C@@H](C(C)C)O2)OC1=O` [bafilomycin], in test [2], the “turnover of COX2, Twist and MMP-2” value was “not inhibited”; the “turnover of LC3, EGFR, c-Myc, MMP1 and p62” value was “inhibited”.
In test [3], AGWLTRLLQTK [M1] had a Kd of 1640 nM.
Still for that read-out and setting: in the case of GAWLTRLLQTK [M2] it was 402 nM; in that of GGALTRLLQTK [M3], 3590 nM; in that of GGWATRLLQTK [M4], 4320 nM.
Regarding GGWLARLLQTK [M5], the Kd in test [3] (setting [5]) came to 110 nM.
The same measure, in the same setting: to GGWLTALLQTK [M6] belongs 0.142 nM; to GGWLTRALQTK [M7], 11800 nM.
Turning to GGWLTRLLATK [M9], the Kd in test [3] came to 35600 nM.
Same read-out and setting: in the case of GGWLTRLLQAK [M10] it was 381 nM; in that of GGWLTRLLQTA [M11], 73.1 nM.
Regarding IGF-1, the “half-life of p62 degradation” value in test [4] amounted to 24 h.
Still for that read-out and setting: to insulin belongs 24 h.
